Test results published in patent US6943183B2 (Pfizer Inc, priority 2000, dated 2005).

Molecular target: T1, SF9 affinity purified rat FPT (Rattus norvegicus, UniProt Q02293+Q04631)
T1 construct: made in house; host or cells: Sf9 insect cells
Assay: PFT (FPT) inhibitory activity assay, radiolabeled farnesyl pyrophosphate and biotinyl peptide, streptavidin beads
Assay type: biochemical
Details: HEPES buffer pH 7.4, 30° C., 30 minutes; read-out: FTase IC50
Procedure, shortened: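 Rat FPT expressed in SF9 cells was incubated 30 minutes at 30° C. with compound (in 10% DMSO), radiolabeled farnesyl pyrophosphate and biotinylated peptide. Buffer: HEPES pH 7.4, ZnCl2 20 μM, MgCl2 and DTT 5 mM each, 0.1% PEG 8000, 5 mM potassium phosphate (also run without phosphate). Product captured on streptavidin beads in magnesium acetate/H3PO4 stop buffer.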

| Compound | IC50 [nM] |
| --- | --- |
| O=C(NC1CC1)c1ccc(S(=O)(=O)Cc2c(O[C@H](Cn3ccnc3)c3ccccc3)ccc3c2CCCC3=O)cc1 [Compound 223, N-Cyclopropyl-4-{[(2-{[(1S)-2-(1H-imidazol-1-yl)-1-phenylethyl]oxy}-5-oxo-5,6,7,8-tetrahydro-1-naphthalenyl)methyl]sulfonyl}benzamide] | 0.24 |
| O=C(NC1CC1)c1cccc(S(=O)(=O)Cc2c(O[C@H](Cn3ccnc3)c3ccccc3)ccc3c2CCCC3=O)c1 [Compound 224, N-Cyclopropyl-3-{[(2-{[(1S)-2-(1H-imidazol-1-yl)-1-phenylethyl]oxy}-5-oxo-5,6,7,8-tetrahydro-1-naphthalenyl)methyl]sulfonyl}benzamide] | 0.2 |
| O=C(NC1CC1)c1ccccc1S(=O)(=O)Cc1c(O[C@H](Cn2ccnc2)c2ccccc2)ccc2c1CCCC2=O [Compound 225, N-Cyclopropyl-2-{[(2-{[(1S)-2-(1H-imidazol-1-yl)-1-phenylethyl]oxy}-5-oxo-5,6,7,8-tetrahydro-1-naphthalenyl)methyl]sulfonyl}benzamide] | 0.2 |
| O=C(NC1CC1)c1ccc(SCc2c(O[C@H](Cn3ccnc3)c3ccccc3)ccc3c2CCCC3=O)cc1 [Compound 226, N-Cyclopropyl-4-{[(2-{[(1S)-2-(1H-imidazol-1-yl)-1-phenylethyl]oxy}-5-oxo-5,6,7,8-tetrahydro-1-naphthalenyl)methyl]sulfanyl}benzamide] | 0.2 |
| O=C(NC1CC1)c1cccc(SCc2c(O[C@H](Cn3ccnc3)c3ccccc3)ccc3c2CCCC3=O)c1 [Compound 227, N-Cyclopropyl-3-{[(2-{[(1S)-2-(1H-imidazol-1-yl)-1-phenylethyl]oxy}-5-oxo-5,6,7,8-tetrahydro-1-naphthalenyl)methyl]sulfanyl}benzamide] | 0.2 |
| O=C(NC1CC1)c1ccccc1SCc1c(O[C@H](Cn2ccnc2)c2ccccc2)ccc2c1CCCC2=O [Compound 228, N-Cyclopropyl-2-{[(2-{[(1S)-2-(1H-imidazol-1-yl)-1-phenylethyl]oxy}-5-oxo-5,6,7,8-tetrahydro-1-naphthalenyl)methyl]sulfanyl}benzamide] | 0.2 |
| O=C(NCc1ccco1)c1ccc(S(=O)(=O)Cc2c(O[C@H](Cn3ccnc3)c3ccccc3)ccc3c2CCCC3=O)cc1 [Compound 229, N-(2-Furylmethyl)-4-{[(2-{[(1S)-2-(1H-imidazol-1-yl)-1-phenylethyl]oxy}-5-oxo-5,6,7,8-tetrahydro-1-naphthalenyl)methyl]sulfonyl}benzamide] | 0.55 |
| O=C(NCc1ccco1)c1cccc(S(=O)(=O)Cc2c(O[C@H](Cn3ccnc3)c3ccccc3)ccc3c2CCCC3=O)c1 [Compound 230, N-(2-Furylmethyl)-3-{[(2-{[(1S)-2-(1H-imidazol-1-yl)-1-phenylethyl]oxy}-5-oxo-5,6,7,8-tetrahydro-1-naphthalenyl)methyl]sulfonyl}benzamide] | 0.2 |
| O=C(NCc1ccco1)c1ccccc1S(=O)(=O)Cc1c(O[C@H](Cn2ccnc2)c2ccccc2)ccc2c1CCCC2=O [Compound 231, N-(2-Furylmethyl)-2-{[(2-{[(1S)-2-(1H-imidazol-1-yl)-1-phenylethyl]oxy}-5-oxo-5,6,7,8-tetrahydro-1-naphthalenyl)methyl]sulfonyl}benzamide] | 0.2 |
| O=C(NC(CO)CO)c1ccccc1SCc1c(O[C@H](Cn2ccnc2)c2ccccc2)ccc2c1CCCC2=O [Compound 232, N-[2-Hydroxy-1-(hydroxymethyl)ethyl]-2-{[(2-{[(1S)-2-(1H-imidazol-1-yl)-1-phenylethyl]oxy}-5-oxo-5,6,7,8-tetrahydro-1-naphthalenyl)methyl]sulfanyl}benzamide] | 0.2 |
| O=C(NC(CO)CO)c1ccc(SCc2c(O[C@H](Cn3ccnc3)c3ccccc3)ccc3c2CCCC3=O)cc1 [Compound 233, N-[2-Hydroxy-1-(hydroxymethyl)ethyl]-4-{[(2-{[(1S)-2-(1H-imidazol-1-yl)-1-phenylethyl]oxy}-5-oxo-5,6,7,8-tetrahydro-1-naphthalenyl)methyl]sulfanyl}benzamide] | 0.45 |
| O=C(NC(CO)CO)c1cccc(SCc2c(O[C@H](Cn3ccnc3)c3ccccc3)ccc3c2CCCC3=O)c1 [Compound 234, N-[2-Hydroxy-1-(hydroxymethyl)ethyl]-3-{[(2-{[(1S)-2-(1H-imidazol-1-yl)-1-phenylethyl]oxy}-5-oxo-5,6,7,8-tetrahydro-1-naphthalenyl)methyl]sulfanyl}benzamide] | 0.25 |
| O=C(NC(CO)CO)c1ccc(S(=O)(=O)Cc2c(O[C@H](Cn3ccnc3)c3ccccc3)ccc3c2CCCC3=O)cc1 [Compound 235, N-[2-Hydroxy-1-(hydroxymethyl)ethyl]-4-{[(2-{[(1S)-2-(1H-imidazol-1-yl)-1-phenylethyl]oxy}-5-oxo-5,6,7,8-tetrahydro-1-naphthalenyl)methyl]sulfonyl}benzamide] | 15 |
| O=C(NC(CO)CO)c1cccc(S(=O)(=O)Cc2c(O[C@H](Cn3ccnc3)c3ccccc3)ccc3c2CCCC3=O)c1 [Compound 236, N-[2-Hydroxy-1-(hydroxymethyl)ethyl]-3-{[(2-{[(1S)-2-(1H-imidazol-1-yl)-1-phenylethyl]oxy}-5-oxo-5,6,7,8-tetrahydro-1-naphthalenyl)methyl]sulfonyl}benzamide] | 0.2 |
| O=C(NC(CO)CO)c1ccccc1S(=O)(=O)Cc1c(O[C@H](Cn2ccnc2)c2ccccc2)ccc2c1CCCC2=O [Compound 237, N-[2-Hydroxy-1-(hydroxymethyl)ethyl]-2-{[(2-{[(1S)-2-(1H-imidazol-1-yl)-1-phenylethyl]oxy}-5-oxo-5,6,7,8-tetrahydro-1-naphthalenyl)methyl]sulfonyl}benzamide] | 0.28 |
| O=C(NCc1ccco1)c1ccc(SCc2c(O[C@H](Cn3ccnc3)c3ccccc3)ccc3c2CCCC3=O)cc1 [Compound 238, N-(2-Furylmethyl)-4-{[(2-{[(1S)-2-(1H-imidazol-1-yl)-1-phenylethyl]oxy}-5-oxo-5,6,7,8-tetrahydro-1-naphthalenyl)methyl]sulfanyl}benzamide] | 0.2 |
| O=C(NCc1ccco1)c1cccc(SCc2c(O[C@H](Cn3ccnc3)c3ccccc3)ccc3c2CCCC3=O)c1 [Compound 239, N-(2-Furylmethyl)-3-{[(2-{[(1S)-2-(1H-imidazol-1-yl)-1-phenylethyl]oxy}-5-oxo-5,6,7,8-tetrahydro-1-naphthalenyl)methyl]sulfanyl}benzamide] | 0.3 |
| O=C(NCc1ccco1)c1ccccc1SCc1c(O[C@H](Cn2ccnc2)c2ccccc2)ccc2c1CCCC2=O [Compound 240, N-(2-Furylmethyl)-2-{[(2-{[(1S)-2-(1H-imidazol-1-yl)-1-phenylethyl]oxy}-5-oxo-5,6,7,8-tetrahydro-1-naphthalenyl)methyl]sulfanyl}benzamide] | 0.2 |
| CC[C@H](CO)NC(=O)c1ccc(S(=O)(=O)Cc2c(O[C@H](Cn3ccnc3)c3ccccc3)ccc3c2CCCC3=O)cc1 [Compound 241, N-[(1R)-1-(Hydroxymethyl)propyl]-4-{[(2-{[(1S)-2-(1H-imidazol-1-yl)-1-phenylethyl]oxy}-5-oxo-5,6,7,8-tetrahydro-1-naphthalenyl)methyl]sulfonyl}benzamide] | 0.26 |
| CC[C@H](CO)NC(=O)c1cccc(S(=O)(=O)Cc2c(O[C@H](Cn3ccnc3)c3ccccc3)ccc3c2CCCC3=O)c1 [Compound 242, N-[(1R)-1-(Hydroxymethyl)propyl]-3-{[(2-{[(1S)-2-(1H-imidazol-1-yl)-1-phenylethyl]oxy}-5-oxo-5,6,7,8-tetrahydro-1-naphthalenyl)methyl]sulfonyl}benzamide] | 0.2 |
